Measurements taken from publication PMC9219006 (Plant Direct, 2022).
Where two headings read alike, the source gives them in different places.

Test system: ASAT1H (SqASAT1H; c39979_g2_i1)
Experiment: LC-MS/MS product formation, Michaelis-Menten fit
Format: biochemical, Solanum quitoense
Details: read-out: apparent Km, 30 °C, pH 6 (default), 20 min

Km (nC10-CoA saturating) [µM]	Km (myo-inositol saturating) [µM]	SMILES
4400 ± 1100		O[C@H]1[C@H](O)[C@@H](O)[C@H](O)[C@@H](O)[C@H]1O [myo-inositol]
	16.6 ± 6.6	CCCCCCCCCCCC(=O)SCCNC(=O)CCNC(=O)[C@H](O)C(C)(C)COP(=O)(O)OP(=O)(O)OC[C@H]1O[C@@H](n2cnc3c(N)ncnc32)[C@H](O)[C@@H]1OP(=O)(O)O [nC12-CoA]
	9.5 ± 2.4	CCCCCCCCCC(=O)SCCNC(=O)CCNC(=O)[C@H](O)C(C)(C)COP(=O)(O)OP(=O)(O)OC[C@H]1O[C@@H](n2cnc3c(N)ncnc32)[C@H](O)[C@@H]1OP(=O)(O)O [nC10-CoA]
